Assays:
human hepatocytes = assay: Hepatocytes stability assay (human hepatocytes); format: in vitro ADME; conditions: for CLint (μL/min/million cells): cryopreserved human hepatocytes (pool of 50 mixed gender), 1 μM test compound, 1×10^6 cell/mL, 37 degrees C; for Extraction Ratio (ER): human hepatocytes, scaled hepatic clearance divided by liver blood flow (well-stirred model, fu assumed unity)
Procedure, shortened: (§1)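 Compound at 1 μM (0.1% DMSO) was incubated with cryopreserved pooled human hepatocytes, 1×10^6 cells/mL in Krebs-Henseleit buffer, at 37 °C, sampled up to 240 min. Parent depletion by LC-MS/MS; half-life from first-order decay gave CLint, scaled to hepatic clearance by well-stirred model (fu assumed 1) and extraction ratio.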

[1] = target: T1, human orexin-2 receptor (OX2R) (Homo sapiens, UniProt O43614); assay: Human OX2R IP1 assay; format: cell-based; conditions: T-Rex CHO cells stably overexpressing human OX2R; IP1 accumulation; 1 hr at 37 degrees C; mean EC50
T1 construct: expressed in transfected cells
T1 sequence (O43614 1-444): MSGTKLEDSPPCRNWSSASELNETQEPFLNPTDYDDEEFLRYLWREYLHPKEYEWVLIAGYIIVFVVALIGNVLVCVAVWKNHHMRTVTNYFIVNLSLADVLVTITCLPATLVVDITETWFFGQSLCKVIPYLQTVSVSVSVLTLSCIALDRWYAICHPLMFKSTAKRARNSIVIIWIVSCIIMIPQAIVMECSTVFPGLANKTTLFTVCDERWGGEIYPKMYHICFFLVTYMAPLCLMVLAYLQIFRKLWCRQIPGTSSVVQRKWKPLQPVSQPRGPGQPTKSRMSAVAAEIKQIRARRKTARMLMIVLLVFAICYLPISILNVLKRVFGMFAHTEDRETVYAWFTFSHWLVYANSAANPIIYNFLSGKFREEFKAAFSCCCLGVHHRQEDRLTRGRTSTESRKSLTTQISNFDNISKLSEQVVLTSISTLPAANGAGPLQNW
Procedure, shortened: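 T-Rex CHO cells stably expressing human OX2R, doxycycline-induced (1 μg/mL) overnight, treated with compounds 1 h at 37 °C in pH 7.4 buffer with 50 mM LiCl. IP1 accumulation read by HTRF competitive immunoassay after 1 h at room temperature; agonist EC50 reported as mean ± S.E.M.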

MDCK-MDR1 cells = assay: MDCK-MDR1 permeability assay; format: in vitro ADME; conditions: MDCK-MDR1 cells; for Efflux ratio (ER): Papp B→A divided by Papp A→B, 3 μM, 2 hours; for Papp A → B (10^−6 cm/s): test compound 3 μM, 2 hours at 37 degrees C, apical to basolateral
Procedure, shortened: (§2)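 Receiver and donor compartments were analysed by LC-MS/MS after a 2 h incubation at 37 °C of 3 μM compound in HBSS on MDCK-MDR1 monolayers, run in both directions with Lucifer Yellow (100 μM) as integrity marker. Apparent permeability came from translocation rate, insert area and initial concentration; B→A/A→B Papp gave the efflux ratio, alongside percent recovery.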

[2] = Hepatocytes stability assay (human hepatocytes); format: in vitro ADME; conditions: both sexes, human, cryopreserved hepatocytes, cryopreserved human hepatocytes (pool of 50 mixed gender); 1 μM test compound; 1×10^6 cell/mL; 37 degrees C; read-out: CLint (μL/min/million cells)
Procedure, shortened: as §1

Sprague-Dawley rats = assay: Assessment of wake promotion in Sprague-Dawley rats (EEG/EMG); format: in vivo, rat; conditions: male Sprague-Dawley rats; PO; 3 mpk; dosed at ZT5; 6-hour post-dose period
Procedure: Wake promotion was assessed using electroencephalography (EEG) and electromyography (EMG) in adult male Sprague-Dawley rats. All rats (Charles River Laboratories, Raleigh, NC, USA) were intraperitoneally implanted with telemetry devices (F50-EEE, Data Sciences International Inc., MN, USA) under isoflurane anesthesia. For EEG, stainless steel screws were implanted over frontal cortex and parietal cortex, and reference screws were placed over cerebellum. Additionally, an electrode was placed in neck muscle for EMG. Rats were given carprofen post-surgery and underwent a 7 to 10-day recovery period. Rats habituated to the experimental room for 7 days and were maintained on a 12-hour light-dark cycle.
EEG and EMG data were recorded using the DSI telemetry system and Ponemah software (Data Sciences International Inc., MN, USA). Sleep-wake stages were scored both manually and with Somnivore, a supervised machine learning software platform, in 10 second epochs. Records were visually inspected as needed post-processing.
All test compounds were dissolved in 5% DMSO and suspended in 95% saline with 0.5% methylcellulose and 0.5% tween. […] Unless otherwise indicated, all compounds were dosed orally. Recordings for each rat were initiated immediately after dosing and lasted for 6 hours post-dose.
Two key endpoints include wakefulness time and cortical activation time. Wakefulness time is derived from the sleep-wake stage analysis. Cortical activation time is based on the duration in which frontal gamma oscillatory activity (30-100 Hz), a key feature of wakefulness, was elevated relative to a pre-treatment baseline. Mean cortical activation time was computed relative to vehicle treatment for the 6-hour post-dose period.

MDR1 = assay: MDCK-MDR1 permeability assay; format: in vitro ADME; conditions: dog, MDCK-MDR1, MDCK-MDR1 cells; for efflux ratio at 2 h, 3 μM: Papp B→A divided by Papp A→B, read-out: Efflux ratio (ER); for Papp A→B at 2 h, 3 μM: test compound 3 μM, 2 hours at 37 degrees C, apical to basolateral
Procedure, shortened: as §2

| SMILES | CLint (μL/min/million cells) (human hepatocytes) | Extraction Ratio (ER) (human hepatocytes) | EC50 [1] [nM] | Efflux ratio (ER) (MDCK-MDR1 cells) | Papp A → B (10^−6 cm/s) (MDCK-MDR1 cells) | hepatocyte CLint at 1 μM [2] [µL/min/1e6 cells] | efflux ratio at 2 h, 3 μM (MDR1) | Papp A→B at 2 h, 3 μM (MDR1) [×10⁻⁶ cm/s] | Mean cortical activation time (% vehicle treatment) (Sprague-Dawley rats) |
| --- | --- | --- | --- | --- | --- | --- | --- | --- | --- |
| Cc1ncnc2c1[C@H]1CC[C@H](CC1)OC[C@H]1[C@@H](NS(C)(=O)=O)CCCN1C(=O)CO2 (stereo in doubt) [Compound 72] | <1.9 | <0.22 | < 10 | 49 | <0.091 10^−6 cm/s |  |  |  |  |
| O=C1COc2ccccc2[C@H]2CC[C@H](CC2)OCC2[C@@H](NS(=O)(=O)C3CCOC3)CCCN12 (stereo in doubt) [Compound 73] | 21 | 0.76 | < 10 | >100 | 0.23 10^−6 cm/s |  |  |  |  |
| Cc1ccnc2c1[C@H]1CC[C@H](CC1)OCC1[C@@H](NS(=O)(=O)C3CCOC3)CCCN1C(=O)CO2 (stereo in doubt) [Compound 90] | 11 | 0.61 | < 10 | 48 | 0.62 10^−6 cm/s |  |  |  |  |

Further lines, with some results ahead:

| CLint (μL/min/million cells) (human hepatocytes) | Extraction Ratio (ER) (human hepatocytes) | EC50 [1] [nM] | Efflux ratio (ER) (MDCK-MDR1 cells) | Papp A → B (10^−6 cm/s) (MDCK-MDR1 cells) | hepatocyte CLint at 1 μM [2] [µL/min/1e6 cells] | efflux ratio at 2 h, 3 μM (MDR1) | Papp A→B at 2 h, 3 μM (MDR1) [×10⁻⁶ cm/s] | SMILES | Mean cortical activation time (% vehicle treatment) (Sprague-Dawley rats) |
| --- | --- | --- | --- | --- | --- | --- | --- | --- | --- |
|  | 0.43 |  |  |  | 5.2 | 44 | 0.42 | O=C1COc2ncncc2[C@H]2CC[C@H](CC2)OCC2[C@@H](NS(=O)(=O)C3CC3)CCCN12 (stereo in doubt) [Compound 97] | 79.25 |
|  | 0.74 |  |  |  | 19 | 14 | 3.9 | CC(C)S(=O)(=O)N[C@H]1CCN2C(=O)COc3ncccc3[C@H]3CC[C@H](CC3)OCC12 (stereo in doubt) [Compound 101] | 109.66 |

Source: US12006330B2, “Substituted macrocyclic compounds and related methods of treatment” (Alkermes, Inc., priority 2020, dated 2024)
